Test results published in patent publication US12018093B2, “Hemiasterlin derivatives and antibody-drug conjugates including same” (priority 2017, dated 2024).
pIC50: −log10 of the molar value. *1 amine or outer side, *2 acyl side, *3 side chain or, on linkers, in order; H or OH if unused. Where a SMILES comes first, the peptide text is derived from it. [ ]: non-standard residue; d: D form. NMeTrp(1,β,β-Me3) = CN[C@H](C(=O)O)C(C)(C)c1cn(C)c2ccccc12; X1 = C/C(=C\[C@H](C(C)C)N(C)[*:1])C(=O)[*:2]; Tle = CC(C)(C)[C@H](N)C(=O)O

Columns and labels:
Karpas-299 cells = experiment: Cellular toxicity test (1), CellTiter-Glo, Karpas-299; type: cell-based; conditions: Homo sapiens, 96 h, cultured 4 days, cell viability
Procedure: SU-DHL-1 cells (American Type Culture Collection, hereinafter, ATCC) and Karpas-299 cells (European Collection of Authenticated Cell Cultures, hereinafter, ECACC), which are human lymphoma cell lines, were cultured in RPMI 1640 (GIBCO) containing 10% fetal bovine serum (MP Biomedicals) (hereinafter, referred to as the “culture medium” in this test). SU-DHL-1 cells and Karpas-299 cells were prepared to be 2×10^6 cells/mL in the culture medium, and were added to a 96 well microplate for cell culturing in an amount of 50 μL for each well. Compounds of Examples or hemiasterlin 4 times diluted with the culture medium in 8 stages were added to the microplate in an amount of 50 μL for each well. To wells to which the test substance was not added, the culture medium was added in an amount of 50 μL for each well. These were cultured at 37 degree under 5% CO2 for 4 days. After culturing, the microplate was taken out from the incubator, and was left at rest at room temperature for 10 minutes. To each well, 50 μL of CellTiter-Glo Luminescent Cell Viability Assay (Promega) was added, and the resultant mixture was stirred. This mixture was incubated at a dark place for 20 minutes. Using a microplate luminometer, luminescence at each well was measured, thereby calculating the cell viability for each concentration of the test substance. From the cell viability, the IC50 value of the test substance was determined.
The IC50 value was calculated by the following formula: IC50(nM)=antilog(LOG10(a/b)×(e−d)/(c−d)+LOG10b) • a: concentration a of test substance • b: concentration b of test substance • c: cell viability upon adding test substance with concentration a • d: cell viability upon adding test substance with concentration b • e: intermediate value between maximum and minimum among cell viabilities upon • adding test substances with different concentrations (a and b are concentrations crossing the cell viability e, and a>b is indicated).
The cell viability at each concentration was calculated by the following formula: Cell Viability (%)=a′/b′×100 • a′: mean value of luminescence amount of wells to which test substance was added (n=6) • b′: mean value of luminescence amount of wells to which test substance was not added (n=6) • (n represents the number of evaluations performed per test substance concentration).

in vitro = conditions: PAMPA, pH 7.4
Procedure: By the parallel artificial membrane permeability assay (PAMPA), the membrane permeability of compounds of Examples was examined as follows: To the donor plate, System solution (pION inc.) and GIT Lipid-0 (pION inc.) were added in an amount of 200 μL and 4 μL for each well, respectively. To the acceptor plate, Acceptor Sink Buffer (pION inc.) was added in an amount of 200 μL. Both plates were superposed and incubated at 37° C. for 4 hours, and then, UVs in the solutions on the side of acceptor and on the side of donor were measured with an UV plate reader (190 to 500 nm). Compounds with poor UV absorption were measured by LC-MS. The permeability coefficient Pe (10^−6 cm/sec) of the drug was calculated by the following formula.

porcine tubulin = porcine tubulin (Sus scrofa, UniProt P02550+P02554); experiment: Activity for inhibiting microtubule polymerization using porcine tubulins (2), microtubule polymerization rate; conditions: 60 minutes after assay initiation; relative to wells without compound; lower = stronger inhibition
Chain of porcine tubulin (P02554 whole entry): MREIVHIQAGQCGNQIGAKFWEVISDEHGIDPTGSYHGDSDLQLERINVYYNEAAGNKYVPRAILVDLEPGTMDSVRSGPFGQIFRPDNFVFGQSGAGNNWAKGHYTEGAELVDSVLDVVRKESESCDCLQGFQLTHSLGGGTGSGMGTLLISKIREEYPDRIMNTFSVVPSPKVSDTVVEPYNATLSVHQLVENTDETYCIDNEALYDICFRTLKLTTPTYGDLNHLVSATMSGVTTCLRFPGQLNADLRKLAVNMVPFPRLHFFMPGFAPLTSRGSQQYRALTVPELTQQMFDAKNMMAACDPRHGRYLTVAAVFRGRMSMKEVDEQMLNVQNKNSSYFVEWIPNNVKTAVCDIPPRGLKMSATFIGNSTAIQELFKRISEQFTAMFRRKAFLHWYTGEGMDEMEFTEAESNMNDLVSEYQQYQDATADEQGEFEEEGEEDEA
Chain of porcine tubulin (P02550 whole entry): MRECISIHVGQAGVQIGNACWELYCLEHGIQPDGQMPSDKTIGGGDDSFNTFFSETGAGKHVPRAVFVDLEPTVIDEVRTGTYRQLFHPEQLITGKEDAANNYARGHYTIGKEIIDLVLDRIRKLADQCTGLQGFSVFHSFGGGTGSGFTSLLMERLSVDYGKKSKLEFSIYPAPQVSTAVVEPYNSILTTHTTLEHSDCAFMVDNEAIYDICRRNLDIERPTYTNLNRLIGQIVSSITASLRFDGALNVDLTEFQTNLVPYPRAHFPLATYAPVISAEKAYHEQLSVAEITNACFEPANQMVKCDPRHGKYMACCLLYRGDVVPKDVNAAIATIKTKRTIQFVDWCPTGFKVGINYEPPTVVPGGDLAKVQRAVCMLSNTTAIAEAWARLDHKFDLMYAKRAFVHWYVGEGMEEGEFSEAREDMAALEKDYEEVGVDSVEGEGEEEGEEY

CCOC(=O)CC[C@@H](NC(=O)/C(C)=C/[C@H](C(C)C)N(C)C(=O)[C@@H](NC(=O)[C@@H](N)C(C)(C)c1cn(C)c2ccccc12)C(C)(C)C)C(=O)OCC [Example 1, (2R)-2-{[(2E,4S)-4-{[(2S)-2-{[(2S)-2-Amino-3-methyl-3-(1-methyl-1H-indol-3-yl)butanoyl]amino}-3,3-dimethylbutanoyl](methyl)amino}-2,5-dimethylhex-2-enoyl]amino}pentane diethyl diester]
pIC50 (Karpas-299 cells): 7.03

C/C(=C\[C@H](C(C)C)N(C)C(=O)[C@@H](NC(=O)[C@@H](N)C(C)(C)c1cn(C)c2ccccc12)C(C)(C)C)C(=O)N[C@H](CCC(=O)O)C(=O)O [Example 2, β,β,1-Trimethyl-L-tryptophyl-N-[(3S,4E)-6-{[(1R)-1,3-dicarboxypropyl]amino}-2,5-dimethyl-6-oxohex-4-en-3-yl]-N,3-dimethyl-L-valinamide]
pIC50 (Karpas-299 cells): < 6.90
Papp (in vitro): 0.2 ×10⁻⁶ cm/s
Microtubule polymerization rate (%) (porcine tubulin): 4%

CN[C@H](C(=O)N[C@H](C(=O)N(C)[C@H](/C=C(\C)C(=O)N[C@@H](CC(=O)O)C(=O)N[C@@H](CC(=O)O)C(=O)N[C@@H](CC(=O)O)C(=O)N[C@@H](CC(=O)O)C(=O)N[C@@H](CC(=O)O)C(=O)O)C(C)C)C(C)(C)C)C(C)(C)c1cn(C)c2ccccc12 [Example 3, N-{(2E,4S)-2,5-Dimethyl-4-[methyl(N,β,β,1-tetramethyl-L-tryptophyl-3-methyl-L-valyl)amino]hex-2-enoyl}-L-α-aspartyl-L-t-aspartyl-L-α-aspartyl-L-α-aspartyl-L-α-aspartic acid] (H-[NMeTrp(1,β,β-Me3)][Tle][X1]DDDDD-OH)
pIC50 (Karpas-299 cells): < 5.30
Papp at 4 h (in vitro): < 0.1 ×10⁻⁶ cm/s
Microtubule polymerization rate (%) (porcine tubulin): 3%

CN[C@H](C(=O)N[C@H](C(=O)N(C)[C@H](/C=C(\C)C(=O)N[C@H](CCCCN)C(=O)O)C(C)C)C(C)(C)C)C(C)(C)c1cn(C)c2ccccc12 [Example 5]
pIC50 (Karpas-299 cells): 7.06

CN[C@H](C(=O)N[C@H](C(=O)N(C)[C@H](/C=C(\C)C(=O)N[C@@H](CCC(=O)O)C(=O)O)C(C)C)C(C)(C)C)C(C)(C)c1cn(C)c2ccccc12 [Example 6]
pIC50 (Karpas-299 cells): 7.47
Papp (in vitro): < 0.1 ×10⁻⁶ cm/s

CCOC(=O)[C@H](CCC(=O)O)NC(=O)/C(C)=C/[C@H](C(C)C)N(C)C(=O)[C@@H](NC(=O)[C@@H](NC)C(C)(C)c1cn(C)c2ccccc12)C(C)(C)C [Example 13]
Microtubule polymerization rate (%) (porcine tubulin): 21%

CN[C@H](C(=O)N[C@H](C(=O)N(C)[C@H](/C=C(\C)C(=O)N[C@@H](CCC(=O)N[C@@H](CCC(=O)O)C(=O)O)C(=O)N[C@@H](CCC(=O)O)C(=O)O)C(C)C)C(C)(C)C)C(C)(C)c1cn(C)c2ccccc12 [Example 47] (H-[NMeTrp(1,β,β-Me3)][Tle][X1]E(Glu)E-OH)
pIC50 (Karpas-299 cells): 6.11
Papp (in vitro): < 0.1 ×10⁻⁶ cm/s
Microtubule polymerization rate (%) (porcine tubulin): 3%

CN[C@H](C(=O)N[C@H](C(=O)N(C)[C@H](/C=C(\C)C(=O)N[C@H](CCC(=O)N[C@@H](CCCCN)C(=O)O)C(=O)O)C(C)C)C(C)(C)C)C(C)(C)c1cn(C)c2ccc(F)cc12 [Example 52]
pIC50 (Karpas-299 cells): 6.64
Papp (in vitro): < 0.1 ×10⁻⁶ cm/s

CN[C@H](C(=O)N[C@H](C(=O)N(C)[C@H](/C=C(\C)C(=O)N[C@@H](CS(=O)(=O)O)C(=O)O)C(C)C)C(C)(C)C)C(C)(C)c1ccccc1 [Example 53]
pIC50 (Karpas-299 cells): 6.91
Papp (in vitro): < 0.1 ×10⁻⁶ cm/s

CN[C@H](C(=O)N[C@H](C(=O)N(C)[C@H](/C=C(\C)C(=O)N[C@@H](COP(=O)(O)O)C(=O)O)C(C)C)C(C)(C)C)C(C)(C)c1ccccc1 [Example 54]
pIC50 (Karpas-299 cells): 7.65

CN[C@H](C(=O)N[C@H](C(=O)N(C)[C@H](/C=C(\C)C(=O)N[C@H](CCC(=O)O)C(=O)O)C(C)C)C(C)(C)C)C(C)(C)c1cccc(C(F)(F)F)c1 [Example 55]
pIC50 (Karpas-299 cells): 7.46
Papp (in vitro): < 0.1 ×10⁻⁶ cm/s
Microtubule polymerization rate (%) (porcine tubulin): 16%

CN[C@H](C(=O)N[C@H](C(=O)N(C)[C@H](/C=C(\C)C(=O)N[C@H](CCC(=O)O)C(=O)O)C(C)C)C(C)(C)C)C(C)(C)c1cccc(F)c1 [Example 56]
pIC50 (Karpas-299 cells): 6.56
Papp (in vitro): 0.7 ×10⁻⁶ cm/s
Microtubule polymerization rate (%) (porcine tubulin): 7%

C/C(=C\[C@H](C(C)C)N(C)C(=O)[C@@H](NC(=O)[C@H]1CCCCN1C(C)C)C(C)(C)C)C(=O)N[C@H](CCC(=O)O)C(=O)O [Example 57]
pIC50 (Karpas-299 cells): < 6.00
Papp (in vitro): < 0.1 ×10⁻⁶ cm/s
Microtubule polymerization rate (%) (porcine tubulin): 5%

CN[C@H](C(=O)N[C@H](C(=O)N(C)[C@H](/C=C(\C)C(=O)N[C@H](CCC(=O)O)C(=O)O)C(C)C)C(C)(C)C)C(C)(C)C1CCCCC1 [Example 58]
pIC50 (Karpas-299 cells): < 6.00
Papp (in vitro): 9 ×10⁻⁶ cm/s
Microtubule polymerization rate (%) (porcine tubulin): 5%

CNC(C(=O)N[C@H](C(=O)N(C)[C@H](/C=C(\C)C(=O)N[C@H](CCC(=O)O)C(=O)O)C(C)C)C(C)(C)C)C(C)(C)c1ccc(O)cc1 (stereo partly shown) [Example 59]
pIC50 (Karpas-299 cells): 6.39
Papp (in vitro): 0.5 ×10⁻⁶ cm/s
Microtubule polymerization rate (%) (porcine tubulin): 2%

CN[C@H](C(=O)N[C@H](C(=O)N(C)[C@H](/C=C(\C)C(=O)N[C@H](CCC(=O)O)C(=O)O)C(C)C)C(C)(C)C)C(C)(C)c1cccc(C#N)c1 [Example 60]
pIC50 (Karpas-299 cells): 6.39
Papp (in vitro): < 0.1 ×10⁻⁶ cm/s
Microtubule polymerization rate (%) (porcine tubulin): 6%

CN[C@H](C(=O)N[C@H](C(=O)N(C)[C@H](/C=C(\C)C(=O)N[C@H](CCC(=O)O)C(=O)O)C(C)C)C(C)(C)C)C(C)(C)c1cc(C)cc(C)c1 [Example 62]
Microtubule polymerization rate (%) (porcine tubulin): 6%

CN[C@H](C(=O)N[C@H](C(=O)N(C)[C@H](/C=C(\C)C(=O)N[C@H](CCC(=O)O)C(=O)O)C(C)C)C(C)(C)C)C(C)(C)c1ccc2ccccc2c1 [Example 64]
pIC50 (Karpas-299 cells): 7.52

CN[C@@H](C(=O)N[C@H](C(=O)N(C)[C@H](/C=C(\C)C(=O)N[C@H](CCC(=O)O)C(=O)O)C(C)C)C(C)(C)C)C(C)(C)c1cccc(Br)c1 [Example 65]
pIC50 (Karpas-299 cells): < 6.00
Papp (in vitro): < 0.1 ×10⁻⁶ cm/s

CN[C@H](C(=O)N[C@H](C(=O)N(C)[C@H](/C=C(\C)C(=O)N[C@H](CCC(=O)O)C(=O)O)C(C)C)C(C)(C)C)C(C)(C)c1ccc(C(=O)OC(C)(C)C)cc1 [Example 66]
pIC50 (Karpas-299 cells): < 6.00
Papp (in vitro): < 0.1 ×10⁻⁶ cm/s
Microtubule polymerization rate (%) (porcine tubulin): 9%

CN[C@H](C(=O)N[C@H](C(=O)N(C)[C@H](/C=C(\C)C(=O)N[C@H](CCC(=O)O)C(=O)O)C(C)C)C(C)(C)C)C(C)(C)c1cccc(-c2ccccc2)c1 [Example 67]
pIC50 (Karpas-299 cells): 6.83
Papp (in vitro): < 0.1 ×10⁻⁶ cm/s
Microtubule polymerization rate (%) (porcine tubulin): 42%

CN[C@H](C(=O)N[C@H](C(=O)N(C)[C@H](/C=C(\C)C(=O)N[C@H](CCC(=O)O)C(=O)O)C(C)C)C(C)(C)C)C(C)(C)c1cccc(C)c1 [Example 68]
pIC50 (Karpas-299 cells): 7.58
Papp (in vitro): < 0.1 ×10⁻⁶ cm/s
Microtubule polymerization rate (%) (porcine tubulin): 4%

CN[C@H](C(=O)N[C@H](C(=O)N(C)[C@H](/C=C(\C)C(=O)N[C@H](CCC(=O)O)C(=O)O)C(C)C)C(C)(C)C)C(C)(C)c1cccc(Br)c1 [Example 69]
pIC50 (Karpas-299 cells): 7.01
Papp (in vitro): < 0.1 ×10⁻⁶ cm/s
Microtubule polymerization rate (%) (porcine tubulin): 5%

CNC(C(=O)N[C@H](C(=O)N(C)[C@H](/C=C(\C)C(=O)N[C@H](CCC(=O)O)C(=O)O)C(C)C)C(C)(C)C)C(C)(C)c1ccc(C(=O)O)cc1 (stereo partly shown) [Example 70]
pIC50 (Karpas-299 cells): 6.14
Papp (in vitro): 0.9 ×10⁻⁶ cm/s

CN[C@H](C(=O)N[C@H](C(=O)N(C)[C@H](/C=C(\C)C(=O)N[C@H](CCC(=O)O)C(=O)O)C(C)C)C(C)(C)C)C(C)(C)c1ccc(C(=O)O)cc1 [Example 71]
pIC50 (Karpas-299 cells): 6.15
Papp (in vitro): < 0.1 ×10⁻⁶ cm/s
Microtubule polymerization rate (%) (porcine tubulin): 4%

CN[C@H](C(=O)N[C@H](C(=O)N(C)[C@H](/C=C(\C)C(=O)N[C@@H](CCC(=O)OC)C(=O)OC)C(C)C)C(C)(C)C)C(C)(C)c1cn(C)c2ccccc12 [Example 72]
pIC50 (Karpas-299 cells): 6.97
Papp (in vitro): < 0.1 ×10⁻⁶ cm/s
Microtubule polymerization rate (%) (porcine tubulin): 1%
